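These data come from cells grown in 96-well plates and exposed to compound for 48 hours at five concentrations. GI50 is the concentration that inhibits growth by half. The concentration for full growth arrest is given as TGI.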 Where a SMILES comes first, the peptide text is derived from it. [ ]: non-standard residue; d: D form. pGlu = O=C1CC[CH](C(=O)O)N1; Thz = O=C(O)[CH]1CSCN1
Key:
Test in all cases: growth of human tumour cells (NCI), 48 h
[1] = test system: OVCAR-8 ovarian
[2] = test system: SR leukemia
[3] = test system: HCT-116 colon
[4] = test system: SF-539 CNS
[5] = test system: MDA-MB-231 breast
[6] = test system: NCI-H460 lung
[7] = test system: SK-MEL-28 melanoma
[8] = test system: PC-3 prostate
[9] = test system: MDA-MB-435
[10] = test system: MOLT-4 leukemia
[11] = test system: CAKI-1 renal
[12] = test system: 786-0 renal
[13] = test system: OVCAR-3 ovarian

## COc1ccc(C(=O)/C=C/c2ccc(OCCCCCCCCCCOc3ccc(/C=C/C(=O)c4ccc(OC)cc4)cc3)cc2)cc1
[1]
  TGI: > 100 µM
[2]
  TGI: > 100 µM
[3]
  TGI: > 100 µM
[4]
  TGI: > 100 µM
[5]
  TGI: > 100 µM
[6]
  TGI: > 100 µM
[7]
  TGI: > 100 µM
[8]
  TGI: > 100 µM
[9]
  TGI: > 100 µM
[10]
  TGI: > 100 µM
[11]
  TGI: > 100 µM
[12]
  TGI: > 100 µM

## CO/C=C(/C(=O)OC)[C@@H]1C[C@@H]1c1ccc2ccccc2c1
[1]
  TGI: > 100 µM
[2]
  TGI: 44.7 µM
[3]
  TGI: 44.1 µM
[4]
  TGI: 44.2 µM
[5]
  TGI: > 100 µM
[6]
  TGI: > 100 µM
[7]
  TGI: 81.4 µM
[8]
  TGI: > 100 µM
[9]
  TGI: 35.1 µM
[13]
  TGI: 73.9 µM
[10]
  TGI: 65.4 µM
[11]
  TGI: 66 µM
[12]
  TGI: > 100 µM

## C=C1C(C(=O)OC)[C@H]1C(=O)OC (stereo partly specified)
[1]
  TGI: > 100 µM
[2]
  TGI: > 100 µM
[3]
  TGI: > 100 µM
[4]
  TGI: > 100 µM
[5]
  TGI: > 100 µM
[6]
  TGI: > 100 µM
[7]
  TGI: > 100 µM
[8]
  TGI: > 100 µM
[9]
  TGI: > 100 µM
[13]
  TGI: > 100 µM
[10]
  TGI: > 100 µM
[11]
  TGI: > 100 µM
[12]
  TGI: > 100 µM

## COC(=O)C1=C(C)NC(=O)N2[C@@H](CCOCc3ccccc3)CC[C@@H]12
[1]
  TGI: > 50 µM
[2]
  TGI: > 50 µM
[4]
  TGI: > 50 µM
[5]
  TGI: > 50 µM
[6]
  TGI: > 50 µM
[7]
  TGI: > 50 µM
[8]
  TGI: > 50 µM
[9]
  TGI: > 50 µM
[13]
  TGI: > 50 µM
[10]
  TGI: > 50 µM
[11]
  TGI: > 50 µM
[12]
  TGI: > 50 µM

## CC(=O)Nc1nc(C)c(S(=O)(=O)NC(=O)NC2NC(=O)NC2=O)s1 (stereo unspecified)
[1]
  TGI: > 100 µM
[2]
  TGI: > 100 µM
[3]
  TGI: > 100 µM
[4]
  TGI: > 100 µM
[5]
  TGI: > 100 µM
[6]
  TGI: > 100 µM
[7]
  TGI: > 100 µM
[8]
  TGI: > 100 µM
[9]
  TGI: > 100 µM
[13]
  TGI: > 100 µM
[10]
  TGI: > 100 µM
[11]
  TGI: > 100 µM
[12]
  TGI: > 100 µM

## C=C1C2CCC3C4(C)CCCC(C)(C(=O)O)C4CCC3(C2)C1OC(=O)/C(C)=C/C (stereo unspecified)
[1]
  TGI: > 100 µM
[2]
  TGI: 9.55 µM
[3]
  TGI: > 100 µM
[4]
  TGI: 55.1 µM
[5]
  TGI: 46.9 µM
[6]
  TGI: > 100 µM
[7]
  TGI: > 100 µM
[8]
  TGI: > 100 µM
[9]
  TGI: > 100 µM
[13]
  TGI: 41 µM
[11]
  TGI: > 100 µM
[12]
  TGI: > 100 µM

## O=C(O)/C=C/c1ccc(Oc2ccccc2C(=O)O)o1
[1]
  TGI: > 10 µM
[2]
  TGI: > 10 µM
[3]
  TGI: > 10 µM
[4]
  TGI: > 10 µM
[5]
  TGI: > 10 µM
[7]
  TGI: > 10 µM
[8]
  TGI: > 10 µM
[9]
  TGI: > 10 µM
[10]
  TGI: > 10 µM
[11]
  TGI: > 10 µM
[12]
  TGI: > 10 µM

## O=C1CCC(C(=O)N2CSCC2C(=O)O)N1 (stereo unspecified) ([pGlu]-[Thz]-OH; configuration not given here)
[1]
  TGI: > 100 µM
[2]
  TGI: > 100 µM
[4]
  TGI: > 100 µM
[5]
  TGI: > 100 µM
[6]
  TGI: > 100 µM
[7]
  TGI: > 100 µM
[8]
  TGI: > 100 µM
[9]
  TGI: > 100 µM
[13]
  TGI: > 100 µM
[10]
  TGI: > 100 µM
[11]
  TGI: > 100 µM
[12]
  TGI: > 100 µM

## COc1ccc(CCN2CCN(CCCc3ccccc3)CC2)cc1
[1]
  TGI: > 100 µM
[2]
  TGI: > 100 µM
[3]
  TGI: > 100 µM
[4]
  TGI: > 100 µM
[5]
  TGI: > 100 µM
[6]
  TGI: > 100 µM
[7]
  TGI: > 100 µM
[8]
  TGI: > 100 µM
[9]
  TGI: > 100 µM
[13]
  TGI: > 100 µM
[10]
  TGI: > 100 µM
[11]
  TGI: > 100 µM
[12]
  TGI: > 100 µM

## C=CCC1(C(=O)OC)CCC/C(=N\O)C1 (stereo unspecified)
[1]
  TGI: > 10 µM
[2]
  TGI: > 10 µM
[3]
  TGI: > 10 µM
[4]
  TGI: > 10 µM
[5]
  TGI: > 10 µM
[7]
  TGI: > 10 µM
[8]
  TGI: > 10 µM
[9]
  TGI: > 10 µM
[13]
  TGI: > 10 µM
[10]
  TGI: > 10 µM
[11]
  TGI: > 10 µM
[12]
  TGI: > 10 µM

## Cc1ccc2nc3ccccc3c(C3C4C(=O)N(c5ccc(F)cc5)C(=O)C4ON3C(C(N)=O)c3ccccc3)c2c1 (stereo unspecified)
[1]
  TGI: > 100 µM
[2]
  TGI: > 100 µM
[3]
  TGI: > 100 µM
[4]
  TGI: 72.1 µM
[5]
  TGI: > 100 µM
[6]
  TGI: > 100 µM
[7]
  TGI: > 100 µM
[8]
  TGI: > 100 µM
[9]
  TGI: 99 µM
[13]
  TGI: 71.6 µM
[10]
  TGI: > 100 µM
[11]
  TGI: > 100 µM
[12]
  TGI: > 100 µM

## COc1ccc(S(=O)(=O)Nc2ccc(-c3csc(N4C(=O)/C(=C/c5ccccc5[N+](=O)[O-])N=C4c4ccccc4)n3)cc2)cc1Cl
[1]
  TGI: > 100 µM
[2]
  TGI: > 100 µM
[3]
  TGI: > 100 µM
[4]
  TGI: > 100 µM
[5]
  TGI: 78.5 µM
[6]
  TGI: > 100 µM
[7]
  TGI: > 100 µM
[8]
  TGI: > 100 µM
[9]
  TGI: > 100 µM
[13]
  TGI: > 100 µM
[10]
  TGI: > 100 µM
[11]
  TGI: > 100 µM
[12]
  TGI: > 100 µM

## CC1OC(OC2C(O)COC(OC3C(C)OC(OC4C(OC(=O)[C@]56CCC(C)(C)C[C@@H]5C5=CCC7[C@@]8(C)C[C@H](O)[C@H](OC9OC(CO)C(O)C(O)C9O)[C@@](C)(CO)[C@@H]8CC[C@@]7(C)[C@]5(C)CC6)OCC(O)C4O)C(O)C3O)C2O)C(O)C(O)C1O (stereo partly specified)
[1]
  TGI: 43.4 µM
[2]
  TGI: 46.9 µM
[3]
  TGI: 57.2 µM
[4]
  TGI: 42.8 µM
[5]
  TGI: 40.2 µM
[6]
  TGI: 48.6 µM
[7]
  TGI: 32.2 µM
[8]
  TGI: 38.3 µM
[9]
  TGI: 57.7 µM
[13]
  TGI: 40.6 µM
[10]
  TGI: 48.7 µM
[11]
  TGI: 32 µM
[12]
  TGI: 38 µM

## O=c1[nH]c(Nc2ccc(Br)c(C(F)(F)F)c2)nc2nc[nH]c12
[1]
  TGI: > 100 µM
[2]
  TGI: > 100 µM
[3]
  TGI: > 100 µM
[4]
  TGI: > 100 µM
[5]
  TGI: > 100 µM
[6]
  TGI: > 100 µM
[7]
  TGI: > 100 µM
[8]
  TGI: > 100 µM
[9]
  TGI: > 100 µM
[13]
  TGI: 87 µM
[10]
  TGI: 88.5 µM
[11]
  TGI: > 100 µM
[12]
  TGI: > 100 µM

## Cn1c(-c2ccco2)ccc1-c1ccc(C=O)o1
[1]
  TGI: > 100 µM
[2]
  TGI: > 100 µM
[3]
  TGI: 53.1 µM
[4]
  TGI: 48.8 µM
[5]
  TGI: > 100 µM
[6]
  TGI: > 100 µM
[7]
  TGI: > 100 µM
[8]
  TGI: > 100 µM
[9]
  TGI: > 100 µM
[13]
  TGI: > 100 µM
[10]
  TGI: 74.6 µM
[11]
  TGI: 55.2 µM
[12]
  TGI: > 100 µM

## FC1(F)ON2CCc3ccccc3C2[C@H]1c1ccccc1 (stereo partly specified)
[1]
  TGI: > 100 µM
[2]
  GI50: > 100 µM
  TGI: > 100 µM
[3]
  TGI: > 100 µM
[4]
  TGI: > 100 µM
[5]
  TGI: > 100 µM
[6]
  GI50: > 100 µM
  TGI: > 100 µM
[7]
  GI50: > 100 µM
  TGI: > 100 µM
[8]
  GI50: > 100 µM
  TGI: > 100 µM
[9]
  GI50: > 100 µM
  TGI: > 100 µM
[13]
  TGI: > 100 µM
[10]
  GI50: > 100 µM
  TGI: > 100 µM
[11]
  GI50: > 100 µM
  TGI: > 100 µM
[12]
  TGI: 96.7 µM

## Cc1nc(-c2ccccc2)cn2c1nc1ccccc12
[1]
  TGI: 37.3 µM
[2]
  TGI: > 100 µM
[3]
  TGI: > 70.9 µM
[4]
  TGI: 53 µM
[5]
  TGI: > 100 µM
[6]
  TGI: 37.1 µM
[7]
  TGI: 72.8 µM
[8]
  TGI: 69.5 µM
[9]
  TGI: 36.9 µM
[13]
  TGI: 69.9 µM
[10]
  TGI: > 100 µM
[11]
  TGI: 62.1 µM
[12]
  TGI: 50.9 µM
